Reference: US20240199635A1, “TETRAHYDROTHIENO PYRIDINE DERIVATIVES AS DDRS INHIBITORS” (CHIESI FARMACEUTICI S.P.A., priority 2021, published 2024)

Assays:
[1] = target: T1, DDR1 (Homo sapiens (Human), UniProt Q08345); assay: DDR1 binding assay (LanthaScreen Europium Kinase Binding assay); conditions: potency class, read-out: Ki DDR1
Protocol: (§1) DDR1 and DDR2 binding assays were performed using Life Technologies LanthaScreen™ Europium Kinase Binding assay. The compounds were incubated with 5 nM DDR1 (Carna Biosciences) or 5 nM DDR2 (Life Technologies) for 1 hour at room temperature in white 384-well OptiPlate (PerkinElmer), containing 20 nM or 10 nM Kinase Tracer 178 respectively and 2 nM Europium labelled anti-GST antibody (Life Technologies) in assay buffer (50 mM HEPES pH 7.5, 10 mM MgCl2, 1 mM EGTA and 0.01% BRIJ35).
(§2) The ratio of fluorescence emission 665 nm/615 nm after excitation at 340 nm was obtained using the Tecan Spark 20M plate reader. IC50 values were determined in GraphPad Prism 7.0 software, using 4 parameter model: log(inhibitor) vs. response. IC50 values were converted in Ki using the Cheng-Prusoff equation (Ki=IC50/(1+[Tracer]/Kd).

[2] = target: T1, DDR1; assay: DDR1 cell based assay (PathHunter U2OS DDR1 assay); conditions: U2OS-DDR1 cells, Type II Collagen stimulation, potency class
Protocol: The inhibition of DDR1 receptor activation by compounds was evaluated by PathHunter® U2OS DDR1 assay (Eurofins DiscoverX), according to the manufacturer's instructions. Briefly, U2OS-DDR1 cells were seeded in white 384-well plates at a density of 5000 cells/well and incubated for 2 hours at 37° C. and 5% CO2. Cells were then treated with compounds at different concentrations and incubated for 30 minutes, before stimulation with bovine Type II Collagen 20 μg/ml and incubation overnight at 37° C. and 5% CO2. PathHunter Detection Reagents were prepared according to the protocol provided by DiscoverX and 20 μl/well of this mix were added to each well. After incubating the plates for 1 hour at room temperature in the dark, luminescence signal was acquired with a plate reader. Raw data were normalized to vehicle control (0% for normalization) and positive control (100% for normalization; cells treated with 20 μg/ml collagen II) and IC50 parameters were calculated in GraphPad Prism 8.0 software, using sigmoidal dose-response curve fitting with variable slope.

[3] = target: DDR2 (Homo sapiens (Human), UniProt Q16832); assay: DDR2 binding assay (LanthaScreen Europium Kinase Binding assay); conditions: potency class, read-out: Ki DDR2
Sequence of DDR2 (Q16832 22-855): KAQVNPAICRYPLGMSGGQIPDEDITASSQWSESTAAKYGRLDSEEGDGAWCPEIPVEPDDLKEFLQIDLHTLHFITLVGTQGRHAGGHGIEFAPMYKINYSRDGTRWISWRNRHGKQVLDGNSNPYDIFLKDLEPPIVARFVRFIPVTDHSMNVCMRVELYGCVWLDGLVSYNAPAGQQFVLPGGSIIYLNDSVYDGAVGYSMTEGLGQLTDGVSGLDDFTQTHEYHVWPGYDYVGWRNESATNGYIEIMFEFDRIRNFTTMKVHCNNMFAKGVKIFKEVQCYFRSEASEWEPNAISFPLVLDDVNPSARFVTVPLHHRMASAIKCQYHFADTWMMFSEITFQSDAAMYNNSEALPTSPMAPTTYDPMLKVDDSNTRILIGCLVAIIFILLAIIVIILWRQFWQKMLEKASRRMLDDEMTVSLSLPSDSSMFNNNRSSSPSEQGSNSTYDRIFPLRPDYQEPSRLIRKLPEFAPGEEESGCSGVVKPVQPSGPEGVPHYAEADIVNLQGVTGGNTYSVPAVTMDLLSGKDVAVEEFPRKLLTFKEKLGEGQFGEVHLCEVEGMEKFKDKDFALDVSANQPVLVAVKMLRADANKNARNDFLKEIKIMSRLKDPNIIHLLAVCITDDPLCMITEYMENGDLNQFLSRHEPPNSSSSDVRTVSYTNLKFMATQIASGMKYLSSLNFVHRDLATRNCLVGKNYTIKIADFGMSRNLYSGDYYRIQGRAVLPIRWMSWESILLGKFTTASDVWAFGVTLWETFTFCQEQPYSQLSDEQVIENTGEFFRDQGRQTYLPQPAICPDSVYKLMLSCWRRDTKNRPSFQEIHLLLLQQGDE
Protocol: as §1, §2

T1 sequence (Q08345 19-913): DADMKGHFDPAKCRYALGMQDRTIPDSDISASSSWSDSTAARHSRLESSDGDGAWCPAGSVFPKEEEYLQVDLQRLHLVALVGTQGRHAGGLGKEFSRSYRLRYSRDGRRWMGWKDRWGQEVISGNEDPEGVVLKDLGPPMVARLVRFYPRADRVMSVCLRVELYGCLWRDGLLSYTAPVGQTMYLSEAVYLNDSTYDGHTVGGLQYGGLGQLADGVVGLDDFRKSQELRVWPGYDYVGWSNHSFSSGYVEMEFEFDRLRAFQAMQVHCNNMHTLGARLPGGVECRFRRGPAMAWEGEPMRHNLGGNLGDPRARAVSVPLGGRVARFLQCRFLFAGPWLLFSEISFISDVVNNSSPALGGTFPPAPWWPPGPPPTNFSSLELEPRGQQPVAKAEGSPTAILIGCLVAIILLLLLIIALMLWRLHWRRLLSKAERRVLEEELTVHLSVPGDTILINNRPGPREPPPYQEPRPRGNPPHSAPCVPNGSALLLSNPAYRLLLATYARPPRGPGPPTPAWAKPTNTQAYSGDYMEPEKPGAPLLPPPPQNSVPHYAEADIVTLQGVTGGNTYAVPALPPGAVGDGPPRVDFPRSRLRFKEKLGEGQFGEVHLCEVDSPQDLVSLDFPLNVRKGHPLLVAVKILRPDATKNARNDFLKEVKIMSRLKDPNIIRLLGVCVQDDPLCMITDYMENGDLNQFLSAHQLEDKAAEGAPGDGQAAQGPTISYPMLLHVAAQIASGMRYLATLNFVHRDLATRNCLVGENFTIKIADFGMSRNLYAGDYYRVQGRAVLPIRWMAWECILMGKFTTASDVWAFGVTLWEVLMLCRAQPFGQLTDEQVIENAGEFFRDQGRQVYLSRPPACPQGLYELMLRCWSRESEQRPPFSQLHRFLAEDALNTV

SMILES | Ki [1] | IC50 [2] | Ki [3]
CN1CCN(c2cncc(CN3CCc4c(C(=O)Nc5cccc(C(F)(F)F)c5)csc4C3)c2)CC1=O [Example 29, 6-((5-(4-methyl-3-oxopiperazin-1-yl)pyridin-3-yl)methyl)-N-(3-(trifluoromethyl)phenyl)-4,5,6,7-tetrahydrothieno[2,3-c]pyridine-3-carboxamide] | < 25 nM | 50 to 80 nM | < 25 nM
COc1cncc(CN2CCc3c(C(=O)Nc4cncc(C(F)(F)F)c4)csc3C2)c1 [Example 32, 6-((5-methoxypyridin-3-yl)methyl)-N-(5-(trifluoromethyl)pyridin-3-yl)-4,5,6,7-tetrahydrothieno[2,3-c]pyridine-3-carboxamide] | < 25 nM | < 25 nM | < 25 nM
O=C(Nc1cncc(C(F)(F)F)c1)c1csc2c1CCN(Cc1cncc(F)c1)C2 [Example 33, 6-((5-fluoropyridin-3-yl)methyl)-N-(5-(trifluoromethyl)pyridin-3-yl)-4,5,6,7-tetrahydrothieno[2,3-c]pyridine-3-carboxamide] | < 25 nM | 25 to 50 nM | < 25 nM
COCCNc1ncc(CN2CCc3c(C(=O)Nc4cc(F)cc(C(F)(F)F)c4)csc3C2)cn1 [Example 41, N-(3-fluoro-5-(trifluoromethyl)phenyl)-6-((2-((2-methoxyethyl)amino)pyrimidin-5-yl)methyl)-4,5,6,7-tetrahydrothieno[2,3-c]pyridine-3-carboxamide] | < 25 nM | 50 to 80 nM | < 25 nM
Nc1ncccc1CN1CCc2c(C(=O)Nc3cc(F)cc(C(F)(F)F)c3)csc2C1 [Example 43, 6-((2-aminopyridin-3-yl)methyl)-N-(3-fluoro-5-(trifluoromethyl)phenyl)-4,5,6,7-tetrahydrothieno[2,3-c]pyridine-3-carboxamide] | < 25 nM | < 25 nM | < 25 nM
Cc1nc(N)ncc1CN1CCc2c(C(=O)Nc3cc(F)cc(C(F)(F)F)c3)csc2C1 [Example 47, 6-((2-amino-4-methylpyrimidin-5-yl)methyl)-N-(3-fluoro-5-(trifluoromethyl)phenyl)-4,5,6,7-tetrahydrothieno[2,3-c]pyridine-3-carboxamide] | < 25 nM | 50 to 80 nM | < 25 nM
CNc1ccc(CN2CCc3c(C(=O)Nc4cc(F)cc(C(F)(F)F)c4)csc3C2)cn1 [Example 48, N-[3-fluoro-5-(trifluoromethyl)phenyl]-6-[[6-(methylamino)-3-pyridyl]methyl]-5,7-dihydro-4H-thieno[2,3-c]pyridine-3-carboxamide] | < 25 nM | < 25 nM | < 25 nM
CN(C)[C@@H]1CCN(Cc2cc(NC(=O)c3csc4c3CCN(Cc3cncnc3OC3CC3)C4)cc(C(F)(F)F)c2)C1 [Example 53, (R)-6-((4-cyclopropoxypyrimidin-5-yl)methyl)-N-(3-((3-(dimethylamino)pyrrolidin-1-yl)methyl)-5-(trifluoromethyl)phenyl)-4,5,6,7-tetrahydrothieno[2,3-c]pyridine-3-carboxamide] | < 25 nM | 25 to 50 nM | < 25 nM
CN(C)Cc1cc(NC(=O)c2csc3c2CCN(Cc2cnc(N)nc2)C3)cc(C(F)(F)F)c1 [Example 55, 6-((2-aminopyrimidin-5-yl)methyl)-N-(3-((dimethylamino)methyl)-5-(trifluoromethyl)phenyl)-4,5,6,7-tetrahydrothieno[2,3-c]pyridine-3-carboxamide] | < 25 nM | 25 to 50 nM | < 25 nM

The next lines start with the values.

Ki [1] | IC50 [2] | Ki [3] | SMILES
< 25 nM | < 25 nM | < 25 nM | Nc1ncc(CN2CCc3c(C(=O)Nc4cccc(C(F)(F)F)c4)csc3C2)cn1 [Example 28, 6-((2-aminopyrimidin-5-yl)methyl)-N-(3-(trifluoromethyl)phenyl)-4,5,6,7-tetrahydrothieno[2,3-c]pyridine-3-carboxamide]
< 25 nM | 50 to 80 nM | < 25 nM | O=C(Nc1cccc(C(F)(F)F)c1)c1csc2c1CCN(Cc1cncc(N3CCS(=O)(=O)CC3)c1)C2 [Example 30, 6-((5-(1,1-dioxidothiomorpholino)pyridin-3-yl)methyl)-N-(3-(trifluoromethyl)phenyl)-4,5,6,7-tetrahydrothieno[2,3-c]pyridine-3-carboxamide]
< 25 nM | 25 to 50 nM | < 25 nM | O=C(Nc1cncc(C(F)(F)F)c1)c1csc2c1CCN(Cc1cccnc1)C2 [Example 34, 6-(pyridin-3-ylmethyl)-N-(5-(trifluoromethyl)pyridin-3-yl)-4,5,6,7-tetrahydrothieno[2,3-c]pyridine-3-carboxamide]
< 25 nM | 50 to 80 nM | 25 to 50 nM | Nc1ncc(CN2CCc3c(C(=O)Nc4cncc(C(F)(F)F)c4)csc3C2)cn1 [Example 35, 6-((2-aminopyrimidin-5-yl)methyl)-N-(5-(trifluoromethyl)pyridin-3-yl)-4,5,6,7-tetrahydrothieno[2,3-c]pyridine-3-carboxamide]
< 25 nM | < 25 nM | < 25 nM | Nc1nccnc1CN1CCc2c(C(=O)Nc3cncc(C(F)(F)F)c3)csc2C1 [Example 36, 6-((3-aminopyrazin-2-yl)methyl)-N-(5-(trifluoromethyl)pyridin-3-yl)-4,5,6,7-tetrahydrothieno[2,3-c]pyridine-3-carboxamide]
< 25 nM | 25 to 50 nM | < 25 nM | O=C(Nc1cc(F)cc(C(F)(F)F)c1)c1csc2c1CCN(Cc1cnc(NC3COC3)nc1)C2 [Example 37, N-[3-fluoro-5-(trifluoromethyl)phenyl]-6-[[2-(oxetan-3-ylamino)pyrimidin-5-yl]methyl]-5,7-dihydro-4H-thieno[2,3-c]pyridine-3-carboxamide]
< 25 nM | < 25 nM | < 25 nM | CNc1ncc(CN2CCc3c(C(=O)Nc4cc(F)cc(C(F)(F)F)c4)csc3C2)cn1 [Example 40, N-(3-fluoro-5-(trifluoromethyl)phenyl)-6-((2-(methylamino)pyrimidin-5-yl)methyl)-4,5,6,7-tetrahydrothieno[2,3-c]pyridine-3-carboxamide]
< 25 nM | 25 to 50 nM | < 25 nM | O=C(Nc1cc(F)cc(C(F)(F)F)c1)c1csc2c1CCN(Cc1cnc(NCCO)nc1)C2 [Example 44, N-(3-fluoro-5-(trifluoromethyl)phenyl)-6-((2-((2-hydroxyethyl)amino)pyrimidin-5-yl)methyl)-4,5,6,7-tetrahydrothieno[2,3-c]pyridine-3-carboxamide]
< 25 nM | < 25 nM | < 25 nM | Cn1cncc1C(=O)N1CCc2c(C(=O)Nc3cc(F)cc(C(F)(F)F)c3)csc2C1 [Example 49, N-(3-fluoro-5-(trifluoromethyl)phenyl)-6-(1-methyl-1H-imidazole-5-carbonyl)-4,5,6,7-tetrahydrothieno[2,3-c]pyridine-3-carboxamide]
< 25 nM | 25 to 50 nM | < 25 nM | CN(C)[C@@H]1CCN(Cc2cc(NC(=O)c3csc4c3CCN(Cc3cnc(N)nc3)C4)cc(C(F)(F)F)c2)C1 [Example 50, (R)-6-((2-aminopyrimidin-5-yl)methyl)-N-(3-((3-(dimethylamino)pyrrolidin-1-yl)methyl)-5-(trifluoromethyl)phenyl)-4,5,6,7-tetrahydrothieno[2,3-c]pyridine-3-carboxamide]
< 25 nM | 50 to 80 nM | 25 to 50 nM | CN(C)[C@@H]1CCN(Cc2cc(NC(=O)c3csc4c3CCN(Cc3cncnc3C(C)(C)F)C4)cc(C(F)(F)F)c2)C1 [Example 51, (R)-N-(3-((3-(dimethylamino)pyrrolidin-1-yl)methyl)-5-(trifluoromethyl)phenyl)-6-((4-(2-fluoropropan-2-yl)pyrimidin-5-yl)methyl)-4,5,6,7-tetrahydrothieno[2,3-c]pyridine-3-carboxamide]
< 25 nM | 50 to 80 nM | < 25 nM | COc1ncncc1CN1CCc2c(C(=O)Nc3cc(CN4CC[C@@H](N(C)C)C4)cc(C(F)(F)F)c3)csc2C1 [Example 52, (R)-N-(3-((3-(dimethylamino)pyrrolidin-1-yl)methyl)-5-(trifluoromethyl)phenyl)-6-((4-methoxypyrimidin-5-yl)methyl)-4,5,6,7-tetrahydrothieno[2,3-c]pyridine-3-carboxamide]
< 25 nM | 25 to 50 nM | < 25 nM | CN(C)[C@@H]1CCN(Cc2cc(NC(=O)c3csc4c3CCN(Cc3cncc(-c5cnn(C)c5)c3)C4)cc(C(F)(F)F)c2)C1 [Example 54, (R)-N-(3-((3-(dimethylamino)pyrrolidin-1-yl)methyl)-5-(trifluoromethyl)phenyl)-6-((5-(1-methyl-1H-pyrazol-4-yl)pyridin-3-yl)methyl)-4,5,6,7-tetrahydrothieno[2,3-c]pyridine-3-carboxamide]
